From patent US20190144867A1, “METHOD FOR MITIGATING METASTASIS” (RESEARCH FOUNDATION OF THE CITY UNIVERSITY OF NEW YORK, priority 2015, published 2019)

Tested on: SN12L1 metastatic renal carcinoma cells
Assay: Modified Boyden chamber 3D migration/invasion with interstitial flow
Type: cell-based, human
Conditions: for migration response to interstitial flow following GAG enzymatic cleavage: 4h and 24h exposure to interstitial flow, normalized by no-flow controls; for normalized migration response to interstitial flow with MAPK signaling inhibitors: flow normalized to no-flow controls, FIG. 5
Procedure: A modified Boyden chamber was used to apply interstitial flow forces to cells in a three-dimensional culture, mimicking those experienced by tumor cells within the interstitium. See Integr Biol (Camb) 2013; 5(11): 1334-43 for details. Briefly, cells were suspended in type I collagen (4 mg/ml), exposed to fluid flow forces via a Darcy flow apparatus (4 h), permitted to migrate for 24 h (without flow) through Transwell chambers (with 8μm pore filters) towards 1 nM TGF-α. Invasion rates were quantified by counting cells present on the underside of the filters. For these tests, only a 4 hour exposure to flow at the lowest shear stress level was applied using a 1 cm H2O hydrostatic pressure differential to drive the flow. Shear stress transmitted to the cell surface through the glycocalyx layer was estimated to be approximately 0.84 dynes/cm^2 and the interstitial flow velocity was 0.83 μm/sec as measured previously, which is in the physiologic range of tumor interstitial flows (0.1-2.0 μm/sec). In addition, baseline migration rates (without flow) for all clonal lines were determined. Based on proliferation rates, HS expression, baseline and flow-mediated migration rates, the CtGFP and shORG-8 cell lines were selected as a paired match for continued experimentation.

| Compound | migration response to interstitial flow following GAG enzymatic cleavage (FIG. 4) | migration response to interstitial flow following GAG enzymatic cleavage (FIG. 4, listed as heparinase) | normalized migration response to interstitial flow with MAPK signaling inhibitors | migration response to interstitial flow following GAG enzymatic cleavage (FIG. 4, listed as Hyaluronidase) |
| --- | --- | --- | --- | --- |
| heparinase III | greatly suppressed | significantly inhibit | – | – |
| N#CC(=C(/N)Sc1ccccc1N)/C(C#N)=C(\N)Sc1ccccc1N [U0126, reference compound] | – | – | inhibited flow-induced enhancement of migration | – |
| hyaluronidase | greatly suppressed | – | – | significantly inhibit |
| C[S+]([O-])c1ccc(-c2nc(-c3ccncc3)c(-c3ccc(F)cc3)[nH]2)cc1 (stereo not shown) [SB 203580, reference compound] | – | – | inhibited flow-induced enhancement of migration | – |
| O=C1c2ccccc2-c2n[nH]c3cccc1c23 [JNK Inhibitor II, reference compound] | – | – | inhibited flow-induced enhancement of migration | – |
